Results published in patent US20230085307A1, “PYRIDAZINONE COMPOUND AND HERBICIDE” (NISSAN CHEMICAL CORPORATION, priority 2019, published 2023).

Key:
blackgrass = assay: Test Example 4: herbicidal effect by soil treatment (Table 19, symbol J); assay type: in vivo, blackgrass (Alopecurus myosuroides)
How it was run: (§1)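 Scoring uses the grading scale of an earlier test, three weeks post-application. Treatment consists of spraying a diluted emulsion formulation across the surface of sterilized diluvial soil in which seeds are buried near 1.5 cm deep; boxes are kept in a greenhouse between 25° C. and 30° C.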

green foxtail [1] = assay: Test Example 4: herbicidal effect by soil treatment (Table 19, symbol G); assay type: in vivo, green foxtail (Setaria viridis)
How it was run: as §1

rice flat sedge = assay: Test Example 3: herbicidal effect by foliage application, Wagner pot (Table 18, symbol E); assay type: in vivo, rice flat sedge (Cyperus iria); conditions: for herbicidal effect on E (rice flat sedge), rating 0-5: 320 g/ha
How it was run: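 Plants were sown in alluvial soil held under 0.1–0.5 cm standing water and grown 14 days in a greenhouse at 25–30 °C. An emulsifiable formulation, water-diluted to the set dose, was then sprayed onto the foliage, and effects were scored three weeks later using previously defined criteria.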

redroot pigweed = assay: Test Example 4: herbicidal effect by soil treatment (Table 19, symbol N); assay type: in vivo, redroot pigweed (Amaranthus retroflexus)
How it was run: as §1

windgrass = assay: Test Example 5: herbicidal effect by foliage application, plastic box (Table 20, symbol L); assay type: in vivo, windgrass (Apera spica-venti); conditions: foliage application; for effect on windgrass (L): 3 weeks after application
How it was run: (§2)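 Post-emergence foliar test in sterilized diluvial soil. Compound applied as water-diluted emulsion at a predetermined rate to 14-day-old plants; evaluation at three weeks.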

late watergrass = assay: Test Example 1: herbicidal activity, application before weed generation under submerged conditions (Table 16, symbol A); assay type: in vivo, late watergrass (Echinochloa oryzicola); conditions: 320 g/ha applied herbicide
How it was run: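 Alluvial soil was flooded to 4 cm depth, weed seeds were sown mixed and 2.5-leaf rice seedlings were transplanted. On sowing day, the compound's emulsion, diluted in water to a set dose, was applied to the water surface. Plants grew at 25–30 °C and were scored 0–5 after three weeks.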

chickweed [2] = assay: Test Example 4: herbicidal effect by soil treatment (Table 19, symbol P); assay type: in vivo, common chickweed (Stellaria media)
How it was run: as §1

Italian ryegrass = assay: Test Example 4: herbicidal effect by soil treatment (Table 19, symbol K); assay type: in vivo, Italian ryegrass (Lolium multiflorum)
How it was run: as §1

southern crabgrass [3] = assay: Test Example 4: herbicidal effect by soil treatment (Table 19, symbol F); assay type: in vivo, southern crabgrass (Digitaria ciliaris)
How it was run: as §1

wild oat = assay: Test Example 5: herbicidal effect by foliage application, plastic box (Table 20, symbol I); assay type: in vivo, wild oat (Avena fatua); conditions: foliage application; for effect on wild oat (I): 3 weeks after application
How it was run: as §2

persian speedwell = assay: Test Example 5: herbicidal effect by foliage application, plastic box (Table 20, symbol R); assay type: in vivo, Persian speedwell (Veronica persica); conditions: foliage application; for effect on persian speedwell (R): 3 weeks after application
How it was run: as §2

green foxtail [4] = assay: Test Example 5: herbicidal effect by foliage application, plastic box (Table 20, symbol G); assay type: in vivo, green foxtail (Setaria viridis); conditions: foliage application; for effect on green foxtail (G): 3 weeks after application
How it was run: as §2

southern crabgrass [5] = assay: Test Example 5: herbicidal effect by foliage application, plastic box (Table 20, symbol F); assay type: in vivo, southern crabgrass (Digitaria ciliaris); conditions: foliage application; for effect on southern crabgrass (F): 3 weeks after application
How it was run: as §2

Japanese bulrush = assay: Test Example 2: herbicidal activity, application during weed generation under submerged conditions (Table 17, symbol B); assay type: in vivo, Japanese bulrush (Schoenoplectus juncoides); conditions: AAH 320 g/ha; application during weed generation, submerged conditions
How it was run: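 3-wk visual-criteria score after one water-surface dose. Emulsion formulation, water-diluted to set rate; applied at 1–2 leaf stage; alluvial soil, 4 cm standing water; seeds co-sown; greenhouse 25–30° C.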

chickweed [6] = assay: Test Example 5: herbicidal effect by foliage application, plastic box (Table 20, symbol P); assay type: in vivo, common chickweed (Stellaria media); conditions: foliage application
How it was run: as §2

[7] = amount of applied herbicide 320 g/ha
[8] = AAH 320 g/ha, evaluated three weeks after application
[9] = 320 g/ha, evaluated three weeks after application
[10] = 320 g/ha, three weeks after application

Cc1nn(C)c(=O)c(-c2c(-c3ccc(Cl)cc3)sc3ccc(F)cc23)c1O [Compound No. 2-010, 4-(2-(4-chlorophenyl)-5-fluorobenzo[b]thiophen-3-yl)-5-hydroxy-2,6-dimethylpyridazin-3(2H)-one]
herbicidal effect rating, J: blackgrass (blackgrass; 320 g/ha): 0 (Herbicidal rate of 5% or less (almost no effect))
herbicidal effect rating, G: green foxtail (green foxtail [1]; 320 g/ha): 5 (Herbicidal rate of 90% or more (almost completely withered))
herbicidal effect on E (rice flat sedge), rating 0-5 (rice flat sedge): 5 (Herbicidal rate of 90% or more (almost completely withered))
herbicidal effect rating, N: redroot pigweed (redroot pigweed; 320 g/ha): 5 (Herbicidal rate of 90% or more (almost completely withered))
effect on windgrass (L) (windgrass; 320 g/ha): 5 (Herbicidal rate of 90% or more (almost completely withered))
Herbicidal effect on A: late watergrass (grade 0-5) (late watergrass): 3 (Herbicidal rate of 40% or more and less than 70%)
herbicidal effect rating, P: chickweed (chickweed [2]; 320 g/ha): 4 (Herbicidal rate of 70% or more and less than 90%)
herbicidal effect rating, K: Italian ryegrass (Italian ryegrass; 320 g/ha): 5 (Herbicidal rate of 90% or more (almost completely withered))
herbicidal effect rating, F: southern crabgrass (southern crabgrass [3]; 320 g/ha): 5 (Herbicidal rate of 90% or more (almost completely withered))
effect on wild oat (I) (wild oat; 320 g/ha): 4 (Herbicidal rate of 70% or more and less than 90%)
effect on persian speedwell (R) (persian speedwell; 320 g/ha): 5 (Herbicidal rate of 90% or more (almost completely withered))
effect on green foxtail (G) (green foxtail [4]; 320 g/ha): 5 (Herbicidal rate of 90% or more (almost completely withered))
effect on southern crabgrass (F) (southern crabgrass [5]; 320 g/ha): 5 (Herbicidal rate of 90% or more (almost completely withered))

Cc1nn(C)c(=O)c(-c2c(-c3ccc(OC(F)F)cc3)sc3ccc(F)cc23)c1OC(=O)C1CCCC1 [2-280]
herbicidal effect on J: blackgrass (blackgrass; [7]): 1 (Herbicidal rate of 5% or more and less than 20%)
herbicidal effect on G: green foxtail (green foxtail [1]; [7]): 2 (Herbicidal rate of 20% or more and less than 40%)
herbicidal effect on E: rice flat sedge (rice flat sedge; [7]): 4 (Herbicidal rate of 70% or more and less than 90%)
herbicidal effect on N: redroot pigweed (redroot pigweed; [7]): 5 (Herbicidal rate of 90% or more (almost completely withered))
herbicidal effect rating, B: Japanese bulrush (Japanese bulrush): 3 (Herbicidal rate of 40% or more and less than 70%)
L: windgrass, herbicidal effect (criteria 0-5) (windgrass; [8]): 3 (Herbicidal rate of 40% or more and less than 70%)
Herbicidal effect on A: late watergrass (grade 0-5) (late watergrass): 5 (Herbicidal rate of 90% or more (almost completely withered))
herbicidal effect on P: chickweed (chickweed [2]; [7]): 1 (Herbicidal rate of 5% or more and less than 20%)
herbicidal effect on K: Italian ryegrass (Italian ryegrass; [7]): 5 (Herbicidal rate of 90% or more (almost completely withered))
P: chickweed, herbicidal effect (criteria 0-5) (chickweed [6]; [8]): 5 (Herbicidal rate of 90% or more (almost completely withered))
herbicidal effect on F: southern crabgrass (southern crabgrass [3]; [7]): 0 (Herbicidal rate of 5% or less (almost no effect))
I: wild oat, herbicidal effect (criteria 0-5) (wild oat; [8]): 3 (Herbicidal rate of 40% or more and less than 70%)
R: persian speedwell, herbicidal effect (criteria 0-5) (persian speedwell; [8]): 5 (Herbicidal rate of 90% or more (almost completely withered))
G: green foxtail, herbicidal effect (criteria 0-5) (green foxtail [4]; [8]): 4 (Herbicidal rate of 70% or more and less than 90%)
F: southern crabgrass, herbicidal effect (criteria 0-5) (southern crabgrass [5]; [8]): 3 (Herbicidal rate of 40% or more and less than 70%)

COCCOCOc1c(C)nn(C)c(=O)c1-c1c(-c2ccc(OCCC3OCCO3)cc2)sc2ccccc12 [1-224]
J: blackgrass, herbicidal effect rating (blackgrass; AAH 320 g/ha): 0 (Herbicidal rate of 5% or less (almost no effect))
G: green foxtail, herbicidal effect rating (green foxtail [1]; AAH 320 g/ha): 3 (Herbicidal rate of 40% or more and less than 70%)
herbicidal effect on E (rice flat sedge), rating 0-5 (rice flat sedge): 5 (Herbicidal rate of 90% or more (almost completely withered))
N: redroot pigweed, herbicidal effect rating (redroot pigweed; AAH 320 g/ha): 4 (Herbicidal rate of 70% or more and less than 90%)
herbicidal effect rating, B: Japanese bulrush (Japanese bulrush): 3 (Herbicidal rate of 40% or more and less than 70%)
effect on windgrass (L) (windgrass; 320 g/ha): 0 (Herbicidal rate of 5% or less (almost no effect))
Herbicidal effect on A: late watergrass (grade 0-5) (late watergrass): 5 (Herbicidal rate of 90% or more (almost completely withered))
P: chickweed, herbicidal effect rating (chickweed [2]; AAH 320 g/ha): 0 (Herbicidal rate of 5% or less (almost no effect))
K: Italian ryegrass, herbicidal effect rating (Italian ryegrass; AAH 320 g/ha): 0 (Herbicidal rate of 5% or less (almost no effect))
F: southern crabgrass, herbicidal effect rating (southern crabgrass [3]; AAH 320 g/ha): 2 (Herbicidal rate of 20% or more and less than 40%)
effect on wild oat (I) (wild oat; 320 g/ha): 0 (Herbicidal rate of 5% or less (almost no effect))
effect on persian speedwell (R) (persian speedwell; 320 g/ha): 5 (Herbicidal rate of 90% or more (almost completely withered))
effect on green foxtail (G) (green foxtail [4]; 320 g/ha): 5 (Herbicidal rate of 90% or more (almost completely withered))
effect on southern crabgrass (F) (southern crabgrass [5]; 320 g/ha): 3 (Herbicidal rate of 40% or more and less than 70%)

COc1cc(F)ccc1-c1sc2ccc(Cl)cc2c1-c1c(O)c(C)nn(C)c1=O [Compound No. 2-095, 4-(5-chloro-2-(4-fluoro-2-methoxyphenyl)benzo[b]thiophen-3-yl)-5-hydroxy-2,6-dimethylpyridazin-3(2H)-one]
herbicidal effect rating, J: blackgrass (blackgrass; 320 g/ha): 3 (Herbicidal rate of 40% or more and less than 70%)
herbicidal effect rating, G: green foxtail (green foxtail [1]; 320 g/ha): 4 (Herbicidal rate of 70% or more and less than 90%)
herbicidal effect on E (rice flat sedge), rating 0-5 (rice flat sedge): 5 (Herbicidal rate of 90% or more (almost completely withered))
herbicidal effect rating, N: redroot pigweed (redroot pigweed; 320 g/ha): 4 (Herbicidal rate of 70% or more and less than 90%)
herbicidal effect on L: windgrass (windgrass; [9]): 5 (Herbicidal rate of 90% or more (almost completely withered))
Herbicidal effect on A: late watergrass (grade 0-5) (late watergrass): 2 (Herbicidal rate of 20% or more and less than 40%)
herbicidal effect rating, P: chickweed (chickweed [2]; 320 g/ha): 3 (Herbicidal rate of 40% or more and less than 70%)
herbicidal effect rating, K: Italian ryegrass (Italian ryegrass; 320 g/ha): 0 (Herbicidal rate of 5% or less (almost no effect))
herbicidal effect on P: chickweed (chickweed [6]; [9]): 5 (Herbicidal rate of 90% or more (almost completely withered))
herbicidal effect rating, F: southern crabgrass (southern crabgrass [3]; 320 g/ha): 3 (Herbicidal rate of 40% or more and less than 70%)
herbicidal effect on I: wild oat (wild oat; [9]): 4 (Herbicidal rate of 70% or more and less than 90%)
herbicidal effect on R: persian speedwell (persian speedwell; [9]): 5 (Herbicidal rate of 90% or more (almost completely withered))
herbicidal effect on G: green foxtail (green foxtail [4]; [9]): 5 (Herbicidal rate of 90% or more (almost completely withered))
herbicidal effect on F: southern crabgrass (southern crabgrass [5]; [9]): 4 (Herbicidal rate of 70% or more and less than 90%)

CCCOc1ccc(-c2sc3ccccc3c2-c2c(O)c(C)nn(C)c2=O)cc1 [1-019]
herbicidal effect rating, J: blackgrass (blackgrass; [7]): 0 (Herbicidal rate of 5% or less (almost no effect))
herbicidal effect rating, G: green foxtail (green foxtail [1]; [7]): 2 (Herbicidal rate of 20% or more and less than 40%)
herbicidal effect on E (rice flat sedge), rating 0-5 (rice flat sedge): 5 (Herbicidal rate of 90% or more (almost completely withered))
herbicidal effect rating, N: redroot pigweed (redroot pigweed; [7]): 4 (Herbicidal rate of 70% or more and less than 90%)
herbicidal effect rating, B: Japanese bulrush (Japanese bulrush): 4 (Herbicidal rate of 70% or more and less than 90%)
herbicidal effect grade, L: windgrass (windgrass; [10]): 5 (Herbicidal rate of 90% or more (almost completely withered))
Herbicidal effect on A: late watergrass (grade 0-5) (late watergrass): 5 (Herbicidal rate of 90% or more (almost completely withered))
herbicidal effect rating, P: chickweed (chickweed [2]; [7]): 5 (Herbicidal rate of 90% or more (almost completely withered))
herbicidal effect rating, K: Italian ryegrass (Italian ryegrass; [7]): 3 (Herbicidal rate of 40% or more and less than 70%)
herbicidal effect grade, P: chickweed (chickweed [6]; [10]): 5 (Herbicidal rate of 90% or more (almost completely withered))
herbicidal effect rating, F: southern crabgrass (southern crabgrass [3]; [7]): 0 (Herbicidal rate of 5% or less (almost no effect))
herbicidal effect grade, I: wild oat (wild oat; [10]): 3 (Herbicidal rate of 40% or more and less than 70%)
herbicidal effect grade, R: persian speedwell (persian speedwell; [10]): 5 (Herbicidal rate of 90% or more (almost completely withered))
herbicidal effect grade, G: green foxtail (green foxtail [4]; [10]): 5 (Herbicidal rate of 90% or more (almost completely withered))
herbicidal effect grade, F: southern crabgrass (southern crabgrass [5]; [10]): 4 (Herbicidal rate of 70% or more and less than 90%)
